The record followed here is article PMC5007552, “The hVps34‐SGK3 pathway alleviates sustained PI3K/Akt inhibition by stimulating mTORC1 and tumour growth” (The EMBO Journal, 2016).

One test addresses MLK3 (Homo sapiens, UniProt Q16584). The test can be described thus: IC50 on recombinant MLK3. The format is biochemical. To be noted: Fig 5B / Appendix Fig S1B, recombinant kinase, unit inferred. The method, then: The result for each kinase is presented as a mean kinase activity of the reaction taken in triplicate relative to a control reaction where the inhibitors were omitted. […] SGK3 was immunoprecipitated from cell lysates and subjected to in vitro kinase assay by measuring phosphorylation of the Crosstide substrate peptide in the presence of 0.1 mM [γ‐^32P]ATP in a 30 min 30°C reaction (upper panel). Kinase reactions are presented as means ± SD for triplicate reaction.
Appendix Figure S1. […] (A) Chemical struc tures of
Sano/f_i-14g, -14i and -14n compounds. (B) IC50 values of inhibitors on indicated recombinant k inases. […]

The subject of the next test is ZR-75-1 cells. As to the kind of experiment: Immunoblot of Akt/mTORC1 pathway markers (Akt, PRAS40, TSC2, S6K1, Rictor, S6, 4EBP1) in ZR-75-1 cells. The format is cell-based, human. The method, then: Kinase reactions are presented as means ± SD for triplicate reaction. Immunoprecipitates (IP) were also analysed by immunoblot with the indicated antibodies. • SGK3 was knocked down in ZR‐75‐1 cells by using shRNA probe B and compared to a control shRNA probe, named sh scramble. After infection, the cells were kept for 2 days in puromycin selection media and then seeded for the experiment. The cells were treated with 1 μM MK‐2206 for 1 h or 5 days. The cell lysates were subjected to immunoblot analysis with the indicated antibodies.
The cell lysates were analysed by immunoblot using the antibody against phosphorylated Akt phosphorylation consensus motif (RxRxxpS/pT).
(§1) HEK293 cells were purchased from the American Tissue Culture Collection (ATCC). Cells were cultured in RPMI or DMEM media supplemented with 10% (v/v) foetal bovine serum, 2 mM L‐glutamine, 100 U/ml penicillin and 0.1 mg/ml streptomycin. Inhibitor treatments were carried out as described in figure legends. During 5 days inhibitor treatments, the media was changed after 72‐h intervals. The cells were lysed in buffer containing 50 mM Tris–HCl (pH 7.5), 150 mM NaCl, 1 mM EDTA, 1 mM EGTA, 1 mM sodium orthovanadate, 10 mM sodium glycerophosphate, 10 mM sodium pyrophosphate, 0.27 M sucrose, 0.1% (v/v) 2‐mercaptoethanol, 1 mM benzamidine and 0.1 mM PMSF. Lysates were clarified by centrifugation at 16,000 g for 10 min at 4°C. Protein concentration was calculated using Bradford assay (Thermo Scientific). Immunoblotting and immunoprecipitation were performed using standard procedures. The signal was developed using ECL Western Blotting Detection Kit (Amersham) on Amersham Hyperfilm ECL film (Amersham).

In a further test the target is T1, SGK3[S486E] (Homo sapiens, UniProt Q96BR1, S486E).
T1 construct: host or cells: HEK293
T1 sequence (Q96BR1 1-496 S486E): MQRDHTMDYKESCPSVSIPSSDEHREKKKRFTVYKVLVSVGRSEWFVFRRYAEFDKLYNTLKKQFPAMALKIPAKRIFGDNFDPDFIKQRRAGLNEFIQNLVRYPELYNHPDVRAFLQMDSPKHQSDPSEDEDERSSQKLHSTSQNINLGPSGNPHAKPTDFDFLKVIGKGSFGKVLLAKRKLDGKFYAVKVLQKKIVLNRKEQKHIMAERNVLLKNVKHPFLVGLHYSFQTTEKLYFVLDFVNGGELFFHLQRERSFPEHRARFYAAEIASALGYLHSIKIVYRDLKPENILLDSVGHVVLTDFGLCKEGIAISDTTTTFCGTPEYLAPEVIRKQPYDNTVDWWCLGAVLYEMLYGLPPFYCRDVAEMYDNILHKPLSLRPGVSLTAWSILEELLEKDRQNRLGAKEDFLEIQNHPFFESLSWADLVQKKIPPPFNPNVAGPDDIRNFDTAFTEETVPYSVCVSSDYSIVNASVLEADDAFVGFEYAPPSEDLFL
The test can be described thus: SGK3 kinase assay on phospholipid vesicles: phosphorylation of SGK3[S486E] at Thr320 by PDK1 with PtdIns(3)P. The format is biochemical. To be noted: in the presence of PtdIns(3)P. The method, then:
Figure 4 PtdIns(3)P binding to PX domain of SGK3 promotes phosphorylation and activation by PDK1 • A, B SGK3 [S486E]‐GST and SGK3 [R90A S486]‐GST were purified from HEK293 cells transiently overexpressing these enzymes. […] SGK3[S486E]‐GST (A) or the non‐PtdIns(3)P‐binding mutant SGK3[R90A, S486E]‐GST (B) was incubated with lipid vesicles comprising phosphatidylcholine (PC) and phosphatidylserine (PS) containing the indicted concentrations of PtdIns or PtdIns(3)P in the presence or absence of added recombinant PDK1 (50 ng) and kinase reactions were initiated by addition of MgATP. After 30 min at 30°C, PDK1 was inhibited by addition of the 1 μM GSK2334470 PDK1 inhibitor and the reaction mixture was supplemented with 2 μg GST‐NDRG1 SGK3 substrate. After another 30 min at 30°C, the reaction was terminated by addition of SDS sample buffer. The reaction mixtures were subjected to immunoblot analysis with the indicated antibodies.
The result for each kinase is presented as a mean kinase activity of the reaction taken in triplicate relative to a control reaction where the inhibitors were omitted. […] SGK3 was immunoprecipitated from cell lysates and subjected to in vitro kinase assay by measuring phosphorylation of the Crosstide substrate peptide in the presence of 0.1 mM [γ‐^32P]ATP in a 30 min 30°C reaction (upper panel). Kinase reactions are presented as means ± SD for triplicate reaction. […]

The subject of the next test is BT-474c cells. As to the kind of experiment: Immunoblot of mTORC1 pathway markers in BT-474c cells. The format is cell-based, human. Particulars: 5 days 1 μM MK-2206, then 3 μM 14h 1 h. As for the experimental part:
SGK3 (upper panel) and S6K1 (middle panel) were immunoprecipitated and subjected to in vitro kinase assay by measuring phosphorylation of the Crosstide substrate peptide in the presence of 0.1 mM [γ‐^32P]ATP in a 30 min 30°C reaction. Kinase reactions are presented as means ± SD for triplicate reaction. Immunoprecipitates (IP) were also analysed by immunoblot with the indicated antibodies. The cell lysates were subjected to immunoblot analysis using the indicated antibodies (bottom panel). Source data are available online for this figure.
as §1, with “Immunoblotting and immunoprecipitation were performed using standard procedures. The signal was developed using ECL Western Blotting Detection Kit (Amersham) on Amersham Hyperfilm ECL film (Amersham).” left out

The mark [1] stands for this setting: 1–3 μM 14h, 1 h, ZR-75-1 in serum.
Where [2] appears, read: ZR-75-1, 5 days GDC0941 or MK-2206, then 3 μM 14h 1 h.

Each structure is given as a SMILES string.

Chain of MLK3 (Q16584 whole entry, species assumed): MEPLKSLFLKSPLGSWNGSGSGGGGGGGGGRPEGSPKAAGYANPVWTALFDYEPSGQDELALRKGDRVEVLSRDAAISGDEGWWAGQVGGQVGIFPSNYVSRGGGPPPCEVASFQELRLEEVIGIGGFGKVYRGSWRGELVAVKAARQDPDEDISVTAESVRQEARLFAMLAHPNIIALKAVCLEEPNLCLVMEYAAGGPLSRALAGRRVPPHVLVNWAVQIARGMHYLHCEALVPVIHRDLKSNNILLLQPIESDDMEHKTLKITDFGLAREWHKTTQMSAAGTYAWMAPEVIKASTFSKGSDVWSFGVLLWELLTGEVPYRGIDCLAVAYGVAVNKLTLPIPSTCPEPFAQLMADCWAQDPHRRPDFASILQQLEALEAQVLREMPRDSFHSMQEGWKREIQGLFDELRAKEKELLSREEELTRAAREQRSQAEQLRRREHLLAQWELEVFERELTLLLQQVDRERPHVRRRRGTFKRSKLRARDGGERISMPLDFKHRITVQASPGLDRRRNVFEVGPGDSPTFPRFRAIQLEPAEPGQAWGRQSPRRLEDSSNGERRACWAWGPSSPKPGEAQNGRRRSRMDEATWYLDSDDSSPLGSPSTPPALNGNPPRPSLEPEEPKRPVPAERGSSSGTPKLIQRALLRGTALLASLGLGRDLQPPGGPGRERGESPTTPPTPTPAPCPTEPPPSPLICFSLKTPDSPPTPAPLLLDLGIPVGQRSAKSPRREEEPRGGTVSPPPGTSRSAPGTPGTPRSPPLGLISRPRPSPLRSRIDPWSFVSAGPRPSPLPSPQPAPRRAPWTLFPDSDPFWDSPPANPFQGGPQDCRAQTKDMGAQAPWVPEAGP

Turning to `Nc1n[nH]c2nc(-c3ccc(NS(=O)(=O)c4cc(Cl)ccc4Cl)cc3)cnc12` [14h], the IC50 at MLK3 worked out at 0.084 µM. The “S6K1 and S6 protein phosphorylation” value in the test on ZR-75-1 cells (10 μM 14h, 1 h, ZR-75-1 in serum) is listed as “moderate reduction”. Further, in the test on ZR-75-1 cells (setting [1]), the “PRAS40 (Akt-specific substrate) phosphorylation” value was “not dephosphorylated”; the “Rictor (Thr1135) and S6 protein (Ser240/244) phosphorylation” value is given as “failed to significantly inhibit”. In the test with ZR-75-1 cells (setting [2]), the 4EBP1 phosphorylation entry was “not markedly reduced” and the TSC2 phosphorylation entry is given as “suppressed phosphorylation of TSC2”. Moreover, the “TSC2, S6K1, Rictor, S6 protein or 4EBP1 phosphorylation or S6K1 activity” value in the test on ZR-75-1 cells (ZR-75-1 in serum without prolonged PI3K or Akt inhibitor treatment, 3 μM 14h) is recorded as “did not inhibit”. In addition, at SGK3[S486E], the “concentration of near maximal inhibition of PDK1 phosphorylating SGK3[S486E] at Thr320” value worked out at 0.1 µM. In addition, the “phosphorylation of TSC2, S6K1 and S6 protein” value in the test on BT-474c cells was “suppression of phosphorylation of TSC2, S6K1 and its downstream target S6 protein”.
